From ChEMBL document CHEMBL1201862, “PubChem BioAssay data set” (2004) come the findings set out here.

Each structure is given as a SMILES string.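 Five concentrations, 48 hours, 96-well plates. The concentration for 50% growth inhibition is given as GI50.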 Active and inactive are the calls of the source. No stated cut-off is given here; in the data, active = GI50 up to about 1.1 µM and inactive = higher.

Test systems include A549; ACHN; CAKI-1; DU-145; HL-60; HOP-62; KM12; LOX IMVI; MDA-MB-231; Malme-3M; NCI-H226; NCI/ADR-RES; PC-3; RXF 393; SF-295; SK-MEL-28; SK-MEL-5; SR; TK-10; U-251.
Common to all, as to test: inhibition of tumour cell growth, NCI panel, 48 h

Regarding `[N-]=[N+]=NCC(=O)c1cnc(O)nc1O`, the GI50 with A549, with ACHN, with CAKI-1, with DU-145, in the assay on HL-60 and with HOP-62 was > 100 µM (inactive) each time. Moreover, the GI50 in the assay with KM12, with LOX IMVI, with MDA-MB-231, with Malme-3M, in the assay on NCI-H226 and in the assay with NCI/ADR-RES was > 100 µM (inactive) in each case. The GI50 in the assay with PC-3, in the assay on RXF 393, with SF-295, in the assay on SK-MEL-28, with SK-MEL-5 and with SR was > 100 µM (inactive) throughout. Further, the GI50 with TK-10 and in the assay on U-251 was > 100 µM (inactive) throughout.
As to `O=C1/C(=C/c2ccccc2)CCc2ccc(Cl)nc21`, the GI50 is 16.6 µM (inactive) with A549; 11.9 µM (inactive) with ACHN; 3.77 µM (inactive) in the assay with CAKI-1; 10 µM (inactive) in the assay with DU-145; 0.0168 µM (active) in the assay on HL-60; 19.7 µM (inactive) in the assay on HOP-62. Moreover, the GI50 is 2.59 µM (inactive) in the assay on KM12; 2.19 µM (inactive) in the assay on LOX IMVI; 15.2 µM (inactive) in the assay with MDA-MB-231; 11 µM (inactive) in the assay on Malme-3M; 20.6 µM (inactive) in the assay on NCI-H226; 19.6 µM (inactive) in the assay on NCI/ADR-RES. In addition, the GI50 was 11.7 µM (inactive) in the assay on PC-3; 8.2 µM (inactive) in the assay on RXF 393; 17.2 µM (inactive) in the assay on SF-295; 14.7 µM (inactive) with SK-MEL-28; 5.31 µM (inactive) in the assay with SK-MEL-5; 2.8 µM (inactive) in the assay with SR. Further, the GI50 in the assay on TK-10 was 13.9 µM (inactive); in the assay on U-251, 3.11 µM (inactive).
On to `COc1cccc(C2CC(C)(O)Oc3cc4c(cc32)OCO4)c1` (stereo not given), for which the GI50 in the assay on A549 is 31 µM (inactive); with ACHN, 25.9 µM (inactive); in the assay on CAKI-1, 29 µM (inactive); with DU-145, 31.3 µM (inactive); with HL-60, 17.2 µM (inactive); in the assay with HOP-62, 21.1 µM (inactive). The GI50 was 11.2 µM (inactive) in the assay on KM12; 22.3 µM (inactive) in the assay on LOX IMVI; 24.1 µM (inactive) in the assay on MDA-MB-231; 26.2 µM (inactive) with Malme-3M; 17.3 µM (inactive) in the assay with NCI-H226; 16.3 µM (inactive) in the assay with NCI/ADR-RES. For the same compound, the GI50 in the assay with PC-3 is 25.1 µM (inactive); in the assay on RXF 393, 28 µM (inactive); in the assay on SF-295 it was 17.8 µM (inactive); with SK-MEL-28 it was 52.6 µM (inactive); in the assay on SK-MEL-5, 14.2 µM (inactive); with SR it was 4.58 µM (inactive). Further, the GI50 in the assay on TK-10 is 21.1 µM (inactive); with U-251 it was 23.4 µM (inactive).
`CN1CCN(CCCCN2c3ccccc3Sc3cc(N=[N+]=[N-])ccc32)CC1`: the GI50 was 1.94 µM (inactive) in the assay on A549; 2.15 µM (inactive) with ACHN; 2.01 µM (inactive) in the assay on CAKI-1; 4.21 µM (inactive) in the assay with DU-145; 2.26 µM (inactive) in the assay with HL-60; 2.49 µM (inactive) with HOP-62. The GI50 in the assay on KM12 was 1.84 µM (inactive); in the assay with LOX IMVI it was 1.62 µM (inactive); in the assay on MDA-MB-231, 1.91 µM (inactive); in the assay on Malme-3M, 1.71 µM (inactive); in the assay with NCI-H226, 5.93 µM (inactive); in the assay with NCI/ADR-RES, 2.59 µM (inactive). Also, the GI50 in the assay on PC-3 was 1.82 µM (inactive); in the assay with RXF 393 it was 2.7 µM (inactive); with SF-295, 2.18 µM (inactive); in the assay on SK-MEL-28, 1.82 µM (inactive); in the assay with SK-MEL-5, 1.57 µM (inactive); in the assay on SR, 5.5 µM (inactive). The figures for the GI50 in the assay with TK-10 and with U-251 were 1.91 µM (inactive) and 2.73 µM (inactive), respectively.
With `CCCCCCCCCCCCCCCCCCOCC(O)COP(=O)(O)OCC1OC(n2cc(F)c(=O)[nH]c2=O)CC1O` (stereo not given), the GI50 with A549 was 0.51 µM (active); in the assay with ACHN it was 0.38 µM (active); in the assay with CAKI-1, 2.16 µM (inactive); in the assay on DU-145, 1.15 µM (inactive); in the assay on HL-60, 6.56 µM (inactive); in the assay on HOP-62, 0.15 µM (active). Besides, the GI50 in the assay on KM12 is 14.5 µM (inactive); in the assay on LOX IMVI it was 0.658 µM (active); with MDA-MB-231, 19.1 µM (inactive); with Malme-3M it was 14.4 µM (inactive); with NCI-H226 it was > 35.6 µM (inactive); in the assay with NCI/ADR-RES it was 2.05 µM (inactive). Also, the GI50 was 3.07 µM (inactive) in the assay on PC-3; 11.9 µM (inactive) in the assay with RXF 393; 0.682 µM (active) in the assay on SF-295; 14.1 µM (inactive) in the assay with SK-MEL-28; 4.01 µM (inactive) with SK-MEL-5; 0.533 µM (active) in the assay on SR. Further, the figures for the GI50 in the assay with TK-10 and in the assay with U-251 were 8.93 µM (inactive) and 1.75 µM (inactive), respectively.
Take `N#CC(C#N)=C/C=C(\Sc1c(Cl)c(Cl)nc(Cl)c1Cl)c1ccc(Cl)cc1`: the GI50 in the assay on A549 was > 100 µM (inactive); in the assay on ACHN it was 16.8 µM (inactive); in the assay on CAKI-1, 14.5 µM (inactive); in the assay with DU-145, 21.1 µM (inactive); in the assay on HL-60, 10.8 µM (inactive); with HOP-62, 29.2 µM (inactive). For the same compound, the GI50 in the assay with KM12 is 19.1 µM (inactive); in the assay with LOX IMVI, 5.56 µM (inactive); with MDA-MB-231, 21.6 µM (inactive); with Malme-3M, 23 µM (inactive); in the assay on NCI-H226 it was 23 µM (inactive); in the assay with NCI/ADR-RES it was 12.8 µM (inactive). The GI50 in the assay with PC-3 was 30 µM (inactive); with RXF 393, 18.5 µM (inactive); with SF-295 it was 19 µM (inactive); in the assay on SK-MEL-28, 19.2 µM (inactive); in the assay on SK-MEL-5, 13 µM (inactive); in the assay with SR it was 3.75 µM (inactive). Also, the GI50 in the assay on TK-10 was 21.2 µM (inactive); in the assay on U-251 it was 16.8 µM (inactive).
In the case of `NNC(=O)CC(=O)Nc1cccc(Cl)c1`, the GI50 in the assay with A549, in the assay on ACHN, with CAKI-1, in the assay on DU-145, in the assay with HL-60 and with HOP-62 was > 100 µM (inactive) each time. The GI50 with KM12 is > 100 µM (inactive); in the assay on LOX IMVI, > 100 µM (inactive); with MDA-MB-231, > 100 µM (inactive); with Malme-3M it was > 100 µM (inactive); in the assay with NCI-H226, > 100 µM (inactive); in the assay on NCI/ADR-RES it was 2.21 µM (inactive). Besides, the GI50 in the assay on PC-3, with RXF 393, in the assay with SF-295, in the assay on SK-MEL-28, with SK-MEL-5 and with SR was > 100 µM (inactive) each time. In addition, the GI50 with TK-10 and with U-251 was > 100 µM (inactive) in each case.
Take `OCCOc1ccc(-c2cc(-c3ccccn3)nc(-c3ccccn3)c2)cc1`: the GI50 in the assay on A549 is 0.172 µM (active); with ACHN, 0.0661 µM (active); in the assay on CAKI-1 it was 0.398 µM (active); with DU-145, 0.106 µM (active); in the assay on HL-60 it was 0.0538 µM (active); with HOP-62, 0.106 µM (active). In addition, the GI50 in the assay with KM12 was 0.296 µM (active); with LOX IMVI it was 0.0916 µM (active); in the assay on MDA-MB-231 it was 1.39 µM (inactive); with Malme-3M, 0.309 µM (active); with NCI-H226, 0.661 µM (active); with NCI/ADR-RES, 0.202 µM (active). Also, the GI50 in the assay on PC-3 is 0.296 µM (active); with RXF 393 it was 0.337 µM (active); in the assay with SF-295, 0.222 µM (active); in the assay with SK-MEL-28, 0.249 µM (active); in the assay on SK-MEL-5 it was 0.23 µM (active); in the assay on SR it was 0.11 µM (active). Also, the figures for the GI50 with TK-10 and in the assay with U-251 were 0.889 µM (active) and 0.148 µM (active), respectively.
Turning to `O=c1ccn(CC2(CO)CCCC2)c(=O)[nH]1`, the GI50 in the assay with A549, in the assay with ACHN, in the assay with CAKI-1, with DU-145, with HL-60 and in the assay with HOP-62 was > 100 µM (inactive) throughout. The GI50 with KM12, in the assay on LOX IMVI, in the assay on MDA-MB-231, in the assay on Malme-3M, with NCI-H226 and with NCI/ADR-RES was > 100 µM (inactive) in each case. Besides, the GI50 with PC-3, in the assay with RXF 393, in the assay on SF-295, in the assay on SK-MEL-28, in the assay on SK-MEL-5 and with SR was > 100 µM (inactive) throughout. The GI50 with TK-10 and in the assay with U-251 was > 100 µM (inactive) each time.
Consider `N#Cc1nc2ccccc2nc1N1CCN(c2ccc([N+](=O)[O-])cc2)CC1`, for which the GI50 in the assay with A549, in the assay on ACHN, with CAKI-1, in the assay with DU-145, with HL-60 and in the assay on HOP-62 was > 100 µM (inactive) each time. The GI50 in the assay on KM12, with LOX IMVI, in the assay on MDA-MB-231, in the assay on Malme-3M, in the assay with NCI-H226 and with NCI/ADR-RES was > 100 µM (inactive) in each case. Moreover, the GI50 in the assay with PC-3 was > 100 µM (inactive); with RXF 393, > 100 µM (inactive); in the assay with SF-295, > 100 µM (inactive); in the assay on SK-MEL-28, > 100 µM (inactive); with SK-MEL-5 it was > 100 µM (inactive); with SR, 0.0339 µM (active). For the same compound, the GI50 with TK-10 and with U-251 was > 100 µM (inactive) throughout.
